# Key:
# [1] = system: K. pneumoniae expressing the Class A carbapenemase KPC-2; test: Broth microdilution MIC assay with meropenem, K. pneumoniae KPC-2; format: cell-based; conditions: Fixed Mero (meropenem) 4 μg/mL; K. p. 156319 KPC-3
# In short: (§1)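 CLSI broth microdilution in cation-adjusted Mueller Hinton broth measured growth of β-lactamase-expressing strains, grown 3-5 h beforehand. The β-lactam partner was held at 4 μg/ml final while test compound was titrated 2-fold from 16 to 0.125 μg/mL final. After 16-20 h at 37° C, the compound MIC was determined by eye.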
# AmpC = biological target: T1, AmpC (Enterobacter cloacae, UniProt P05364); test: β-lactamase enzyme inhibition assay, p99 AmpC (nitrocefin substrate); format: biochemical
# T1 construct: made in house; host or cells: E. coli BL21(DE3)
# In short: (§2)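 IC50 is the inhibitor level cutting initial substrate hydrolysis rate by 50% relative to no-inhibitor controls, after 15 min enzyme–inhibitor preincubation at 37 °C. enzymes were untagged, E. coli-expressed, chromatographically purified.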
# [2] = system: P. aeruginosa expressing the Class B carbapenemase VIM-2; test: Broth microdilution MIC assay with meropenem, P. aeruginosa VIM-2; format: cell-based; conditions: Fixed Mero (meropenem) 4 μg/mL; P. aerug. 2775 VIM-2
# In short: as §1
# OXA-48 = OXA-48 (UniProt Q6XEC0); test: β-lactamase enzyme inhibition assay, Class D oxacillinase; format: biochemical; conditions: read-out: OXA-48
# KPC-2 = biological target: T2, KPC-2 (Klebsiella pneumoniae, UniProt Q9F663); test: β-lactamase enzyme inhibition assay, KPC-2 (imipenem substrate); format: biochemical; conditions: Class A; imipenem substrate, 300 nm; read-out: KPC-2
# T2 construct: made in house; host or cells: E. coli BL21(DE3)
# In short: as §2, with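 “°C. KPC-2 read with imipenem at 300 nm, SHV-5 with cefotaxime at 260 nm;” for “°C.”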
# [3] = system: E. cloacae expressing the Class C P99; test: Broth microdilution MIC assay with ceftazidime, E. cloacae P99; format: cell-based; conditions: Fixed CAZ (ceftazidime) 4 μg/mL; E. cl. 144200 p99 AmpC
# In short: as §1
# [4] = system: K. pneumoniae producing the Class D carbapenemase OXA-48; test: Broth microdilution MIC assay with meropenem, K. pneumoniae OXA-48; format: cell-based; conditions: Fixed Mero (meropenem) 4 μg/mL; K. p. 11978 OXA-48
# In short: as §1
# [5] = system: K. pneumoniae expressing the class A carbapenemase KPC-2 and the class B carbapenemase VIM-4; test: Broth microdilution MIC assay with meropenem, K. pneumoniae KPC-2 and VIM-4; format: cell-based; conditions: Fixed Mero (meropenem) 4 μg/mL; K. p. A-1797 KPC-2 VIM-4
# In short: as §1
# SHV-5 = biological target: T3, SHV-5 (Klebsiella pneumoniae, UniProt P0A3M1); test: β-lactamase enzyme inhibition assay, SHV-5 (cefotaxime substrate); format: biochemical
# T3 construct: made in house; host or cells: E. coli BL21(DE3)
# In short: as §2, with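 “°C. KPC-2 read with imipenem at 300 nm, SHV-5 with cefotaxime at 260 nm;” for “°C.”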
# VIM-2 = biological target: T4, VIM-2 (Escherichia coli, UniProt Q5U7L7); test: β-lactamase enzyme inhibition assay, VIM-2 (nitrocefin substrate); format: biochemical; conditions: Class B; nitrocefin substrate, 486 nm; read-out: VIM-2
# T4 construct: made in house; host or cells: E. coli BL21(DE3)
# In short: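 Nitrocefin hydrolysis (100 μM final, A486 read for 10 min) by purified VIM-2 after a 15-min, 37° C enzyme–inhibitor preincubation. IC50 is the concentration halving initial hydrolysis rate, derived from percent inhibition against no-inhibitor wells.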
# [6] = system: E. coli expressing the Class A Extended Spectrum Beta-Lactamase (ESBL) CTX-M-15; test: Broth microdilution MIC assay with ceftazidime, E. coli CTX-M-15; format: cell-based; conditions: Fixed CAZ (ceftazidime) 4 μg/mL; E. coli ESBL4 CTX-M-15
# In short: as §1
# T2 sequence (Q9F663 25-293, looked up): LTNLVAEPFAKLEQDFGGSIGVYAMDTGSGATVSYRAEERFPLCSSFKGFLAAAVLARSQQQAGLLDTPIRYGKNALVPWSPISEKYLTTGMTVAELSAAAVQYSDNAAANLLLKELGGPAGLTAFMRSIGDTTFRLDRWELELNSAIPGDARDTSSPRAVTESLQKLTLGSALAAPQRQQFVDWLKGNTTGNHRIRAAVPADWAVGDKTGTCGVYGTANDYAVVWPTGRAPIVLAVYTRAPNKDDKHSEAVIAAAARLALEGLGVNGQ
# T3 sequence (P0A3M1 22-286): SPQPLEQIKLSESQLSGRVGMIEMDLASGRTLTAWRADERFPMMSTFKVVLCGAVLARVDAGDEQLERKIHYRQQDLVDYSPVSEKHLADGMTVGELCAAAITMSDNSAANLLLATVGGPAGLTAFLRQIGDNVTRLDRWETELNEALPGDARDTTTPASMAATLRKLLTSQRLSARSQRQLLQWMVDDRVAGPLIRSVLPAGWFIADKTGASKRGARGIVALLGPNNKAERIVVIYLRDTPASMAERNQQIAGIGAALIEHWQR
# T1 sequence (P05364 21-381): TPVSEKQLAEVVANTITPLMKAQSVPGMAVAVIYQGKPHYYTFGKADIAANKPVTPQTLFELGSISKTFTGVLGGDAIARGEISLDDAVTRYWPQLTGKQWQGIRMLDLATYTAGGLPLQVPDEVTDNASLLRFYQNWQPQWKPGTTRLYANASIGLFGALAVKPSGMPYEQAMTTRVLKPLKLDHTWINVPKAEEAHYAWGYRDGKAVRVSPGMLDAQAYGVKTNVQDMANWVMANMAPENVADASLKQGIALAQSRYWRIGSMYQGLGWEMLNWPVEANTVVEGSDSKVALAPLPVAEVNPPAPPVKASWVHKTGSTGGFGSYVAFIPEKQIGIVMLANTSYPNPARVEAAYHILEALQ
SMILES,MIC (μg/mL) of Exemplary Compounds in presence of fixed β-lactams: K. p. 156319 KPC-3 [1],IC50 (AmpC) [nM],MIC (μg/mL) of Exemplary Compounds in presence of fixed β-lactams: P. aerug. 2775 VIM-2 [2],IC50 (OXA-48) [nM],IC50 (KPC-2) [nM],MIC (μg/mL) of Exemplary Compounds in presence of fixed β-lactams: E. cl. 144200 p99 AmpC [3],MIC (μg/mL) of Exemplary Compounds in presence of fixed β-lactams: K. p. 11978 OXA-48 [4],MIC (μg/mL) of Exemplary Compounds in presence of fixed β-lactams: K. p. A-1797 KPC-2 VIM-4 [5],IC50 (SHV-5) [nM],IC50 (VIM-2) [nM],MIC (μg/mL) of Exemplary Compounds in presence of fixed β-lactams: E. coli ESBL4 CTX-M-15 [6]
"NCCn1cnc(C(=O)N[C@H]2Cc3cccc(C(=O)O)c3OB2O)c1 [Example 72, (R)-3-(1-(2-aminoethyl)-1H-imidazole-4-carboxamido)-2-hydroxy-3,4-dihydro-2H-benzo[e][1,2]oxaborinine-8-carboxylic acid]",C (C represents an MIC of <1 μg/mL),< 100,B (B represents an MIC between 1 and 16 μg/mL inclusive),100 to 1000,< 100,C (C represents an MIC of <1 μg/mL),B (B represents an MIC between 1 and 16 μg/mL inclusive),B (B represents an MIC between 1 and 16 μg/mL inclusive),< 100,100 to 1000,C (C represents an MIC of <1 μg/mL)
"NCCn1cnc(CC(=O)N[C@H]2Cc3cccc(C(=O)O)c3OB2O)n1 [Example 118, (R)-3-(2-(1-(2-aminoethyl)-1H-1,2,4-triazol-3-yl)acetamido)-2-hydroxy-3,4-dihydro-2H-benzo[e][1,2]oxaborinine-8-carboxylic acid]",C (C represents an MIC of <1 μg/mL),< 100,C (C represents an MIC of <1 μg/mL),100 to 1000,100 to 1000,C (C represents an MIC of <1 μg/mL),B (B represents an MIC between 1 and 16 μg/mL inclusive),B (B represents an MIC between 1 and 16 μg/mL inclusive),100 to 1000,1000 to 10000,C (C represents an MIC of <1 μg/mL)
"NCCn1cnc(C(=O)N[C@H]2Cc3cccc(C(=O)O)c3OB2O)n1 [Example 71, (R)-3-(1-(2-aminoethyl)-1H-1,2,4-triazole-3-carboxamido)-2-hydroxy-3,4-dihydro-2H-benzo[e][1,2]oxaborinine-8-carboxylic acid]",C (C represents an MIC of <1 μg/mL),< 100,C (C represents an MIC of <1 μg/mL),10000 to 100000,100 to 1000,C (C represents an MIC of <1 μg/mL),A (A represents an MIC>16 μg/mL),B (B represents an MIC between 1 and 16 μg/mL inclusive),100 to 1000,100 to 1000,C (C represents an MIC of <1 μg/mL)
"Nc1cnn(CC(=O)N[C@H]2Cc3cccc(C(=O)O)c3OB2O)c1 [Example 58, (R)-3-(2-(4-amino-1H-pyrazol-1-yl)acetamido)-2-hydroxy-3,4-dihydro-2H-benzo[e][1,2]oxaborinine-8-carboxylic acid]",B (B represents an MIC between 1 and 16 μg/mL inclusive),< 100,B (B represents an MIC between 1 and 16 μg/mL inclusive),100 to 1000,< 100,C (C represents an MIC of <1 μg/mL),B (B represents an MIC between 1 and 16 μg/mL inclusive),B (B represents an MIC between 1 and 16 μg/mL inclusive),< 100,100 to 1000,C (C represents an MIC of <1 μg/mL)
"CC(C)(C(=O)N[C@H]1Cc2cccc(C(=O)O)c2OB1O)n1cc(CN)nn1 [Example 33, (R)-3-(2-(4-(aminomethyl)-1H-1,2,3-triazol-1-yl)-2-methylpropanamido)-2-hydroxy-3,4-dihydro-2H-benzo[e][1,2]oxaborinine-8-carboxylic acid]",B (B represents an MIC between 1 and 16 μg/mL inclusive),< 100,C (C represents an MIC of <1 μg/mL),< 100,< 100,C (C represents an MIC of <1 μg/mL),B (B represents an MIC between 1 and 16 μg/mL inclusive),C (C represents an MIC of <1 μg/mL),< 100,< 100,C (C represents an MIC of <1 μg/mL)
"O=C(Cn1nnnc1CC(=O)N[C@H]1Cc2cccc(C(=O)O)c2OB1O)N[C@H]1CCNC1 [Example 43, (R)-2-hydroxy-3-(2-(1-(2-oxo-2-(((S)-pyrrolidin-3-yl)amino)ethyl)-1H-tetrazol-5-yl)acetamido)-3,4-dihydro-2H-benzo[e][1,2]oxaborinine-8-carboxylic acid]",C (C represents an MIC of <1 μg/mL),< 100,C (C represents an MIC of <1 μg/mL),100 to 1000,< 100,C (C represents an MIC of <1 μg/mL),B (B represents an MIC between 1 and 16 μg/mL inclusive),B (B represents an MIC between 1 and 16 μg/mL inclusive),< 100,< 100,C (C represents an MIC of <1 μg/mL)
"Nc1nnc(CC(=O)N[C@H]2Cc3cccc(C(=O)O)c3OB2O)[nH]1 [Example 20, (R)-3-(2-(5-amino-4H-1,2,4-triazol-3-yl)acetamido)-2-hydroxy-3,4-dihydro-2H-benzo[e][1,2]oxaborinine-8-carboxylic acid]",B (B represents an MIC between 1 and 16 μg/mL inclusive),100 to 1000,B (B represents an MIC between 1 and 16 μg/mL inclusive),100 to 1000,< 100,C (C represents an MIC of <1 μg/mL),B (B represents an MIC between 1 and 16 μg/mL inclusive),B (B represents an MIC between 1 and 16 μg/mL inclusive),< 100,100 to 1000,C (C represents an MIC of <1 μg/mL)
"NCCn1nnnc1CC(=O)N[C@H]1Cc2cccc(C(=O)O)c2OB1O [Example 41, (R)-3-(2-(1-(2-aminoethyl)-1H-tetrazol-5-yl)acetamido)-2-hydroxy-3,4-dihydro-2H-benzo[e][1,2]oxaborinine-8-carboxylic acid]",C (C represents an MIC of <1 μg/mL),< 100,C (C represents an MIC of <1 μg/mL),100 to 1000,< 100,C (C represents an MIC of <1 μg/mL),B (B represents an MIC between 1 and 16 μg/mL inclusive),C (C represents an MIC of <1 μg/mL),< 100,< 100,C (C represents an MIC of <1 μg/mL)
